Measured values published in article PMC10946806, “Development of Bifunctional, Raman Active Diyne‐Girder Stapled α‐Helical Peptides” (Chemistry (Weinheim an Der Bergstrasse, Germany), 2023).
Each block holds one compound with its values, some of them ahead of it. Positions of bridges follow the written chain, without caps; N, C: chain ends. Non-standard residues stand in square brackets, D forms with d. Residues, ends and D or L forms follow the SMILES beside them. *: point of attachment. FITC = O=C1OC2(c3ccc(O)cc3Oc3cc(O)ccc32)c2ccc(NC(=S)*)cc21; R8 = C=CCCCCCC[C@@](C)(N)C(=O)O; S5 = C=CCCC[C@](C)(N)C(=O)O; Nle = CCCC[C@H](N)C(=O)O; Ahx = NCCCCCC(=O)O

Key:
[1] = Circular dichroism (CD) spectroscopy, % helicity; assay type: physicochemical; settings: for percentage helicity at 222 nm from mean residue ellipticity: peptide 50 μM in PBS pH 7.4, room temperature, MRE at 222 nm converted by Equation S2; for percentage helicity (in words): peptide 50 μM in PBS pH 7.4, 222 nm
Experimental: Circular dichroism (CD): CD spectra were obtained using a JASCO J-810 CD spectrometer. […] Percentage helicities can be calculated for α-helical peptides. […] […] Equation S1. MRE calculation. […] To 100 μL of peptide solution was added 100 11

[2] = on-resin Glaser oxidative coupling of two terminal alkynes (i,i+7 side chains) to 1,3-diyne; CuCl 5 eq, 4,4'-bis(hydroxymethyl)-2,2'-bipyridine 7.5 eq, DIPEA 20 eq, microwave; settings: the molecule shown is the open-chain precursor, DMF, 10.0 mM, 60.0 °C, 3.0 h

- percentage helicity at 222 nm from mean residue ellipticity [1]: 54%
Compound: FTU-Ahx-AKS7YAR(Nle)GRR7LKEIAK-NH2 (sidechain bridge or staple) [compound 32, diyne-girder stapled T-STAR peptide, C14 bridge, SR]

- percentage helicity (in words) [1]: high
Compound: FTU-Ahx-AKR8YAR(Nle)GRS8LKEIAK-NH2 (sidechain bridge or staple) [compound 35, diyne-girder stapled T-STAR peptide, C16 bridge, RS]

Compound: CCCC[C@@H]1NC(=O)[C@H](CCCNC(=N)N)NC(=O)[C@H](C)NC(=O)[C@H](Cc2ccc(O)cc2)NC(=O)[C@](C)(NC(=O)[C@H](CCCCN)NC(=O)[C@H](C)NC(=O)CCCCCNC(=S)Nc2ccc3c(c2)C(=O)OC32c3ccc(O)cc3Oc3cc(O)ccc32)CCCCCC/C=C\CCC[C@@](C)(C(=O)N[C@@H](CC(C)C)C(=O)N[C@@H](CCCCN)C(=O)N[C@@H](CCC(=O)O)C(=O)N[C@H](C(=O)N[C@@H](C)C(=O)N[C@@H](CCCCN)C(N)=O)[C@@H](C)CC)NC(=O)[C@H](CCCNC(=N)N)NC(=O)CNC1=O ({FITC-Ahx}-AK[R8]YAR[Nle]GR[S5]LKEIAK-NH2; staple (Z) 3-10)
- % peptide remaining after 4 h with chymotrypsin: > 92%

Compound: CCCC[C@@H]1NC(=O)[C@H](CCCNC(=N)N)NC(=O)[C@H](C)NC(=O)[C@H](Cc2ccc(O)cc2)NC(=O)[C@@](C)(NC(=O)[C@H](CCCCN)NC(=O)[C@H](C)NC(=O)CCCCCNC(=S)Nc2ccc3c(c2)C(=O)OC32c3ccc(O)cc3Oc3cc(O)ccc32)CCCCCC#CC#CCCCCC[C@@](C)(C(=O)N[C@@H](CC(C)C)C(=O)N[C@@H](CCCCN)C(=O)N[C@@H](CCC(=O)O)C(=O)N[C@H](C(=O)N[C@@H](C)C(=O)N[C@@H](CCCCN)C(N)=O)[C@@H](C)CC)NC(=O)[C@H](CCCNC(=N)N)NC(=O)CNC1=O
- % peptide remaining after 4 h with chymotrypsin: > 92%

- percentage helicity (in words) [1]: high
Compound: FTU-Ahx-AKS8YAR(Nle)GRS8LKEIAK-NH2 (sidechain bridge or staple) [compound 33, diyne-girder stapled T-STAR peptide, C16 bridge, SS]

Compound: CCCC[C@@H]1NC(=O)[C@H](CCCNC(=N)N)NC(=O)[C@H](C)NC(=O)[C@H](Cc2ccc(O)cc2)NC(=O)[C@@H](NC(=O)[C@H](CCCCN)NC(=O)[C@H](C)NC(=O)CCCCCNC(=S)Nc2ccc3c(c2)C(=O)OC32c3ccc(O)cc3Oc3cc(O)ccc32)CCCCCC#CC#CCCCCC[C@@H](C(=O)N[C@@H](CC(C)C)C(=O)N[C@@H](CCCCN)C(=O)N[C@@H](CCC(=O)O)C(=O)N[C@H](C(=O)N[C@@H](C)C(=O)N[C@@H](CCCCN)C(N)=O)[C@@H](C)CC)NC(=O)[C@H](CCCNC(=N)N)NC(=O)CNC1=O
- % peptide remaining after 4 h with chymotrypsin: > 92%

- percentage helicity at 222 nm from mean residue ellipticity [1]: 40%
Compound: FTU-Ahx-AKR7YAR(Nle)GRR7LKEIAK-NH2 (sidechain bridge or staple) [compound 30, diyne-girder stapled T-STAR peptide, C14 bridge, RR]

- percentage helicity at 222 nm from mean residue ellipticity [1]: 33%
Compound: FTU-Ahx-AKR8YAR(Nle)GRR8LKEIAK-NH2 (sidechain bridge or staple) [compound 34, diyne-girder stapled T-STAR peptide, C16 bridge, RR]

Compound: C#CCCCCCC[C@@](C)(NC(=O)[C@H](CCCNC(=N)NS(=O)(=O)c1c(C)c(C)c2c(c1C)CC(C)(C)O2)NC(=O)CNC(=O)[C@H](CCCC)NC(=O)[C@H](CCCNC(=N)NS(=O)(=O)c1c(C)c(C)c2c(c1C)CC(C)(C)O2)NC(=O)[C@H](C)NC(=O)[C@H](Cc1ccc(OC(C)(C)C)cc1)NC(=O)[C@](C)(CCCCCCC#C)NC(=O)[C@H](CCCCNC(=O)OC(C)(C)C)NC(=O)[C@H](C)NC(=O)CCCCCNC(=O)OCC1c2ccccc2-c2ccccc21)C(=O)N[C@@H](CC(C)C)C(=O)N[C@@H](CCCCNC(=O)OC(C)(C)C)C(=O)N[C@@H](CCC(=O)OC(C)(C)C)C(=O)N[C@H](C(=O)N[C@@H](C)C(=O)N[C@@H](CCCCNC(=O)OC(C)(C)C)C(N)=O)[C@@H](C)CC
- ring closure, conversion by HPLC ([2]; 38-membered ring): 68%

Compound: C#CCCC[C@](C)(NC(=O)[C@H](CCCCNC(=O)OC(C)(C)C)NC(=O)[C@H](C)NC(=O)CCCCCNC(=O)OCC1c2ccccc2-c2ccccc21)C(=O)N[C@@H](Cc1ccc(OC(C)(C)C)cc1)C(=O)N[C@@H](C)C(=O)N[C@@H](CCCNC(=N)NS(=O)(=O)c1c(C)c(C)c2c(c1C)CC(C)(C)O2)C(=O)N[C@@H](CCCC)C(=O)NCC(=O)N[C@@H](CCCNC(=N)NS(=O)(=O)c1c(C)c(C)c2c(c1C)CC(C)(C)O2)C(=O)N[C@@](C)(CCCC#C)C(=O)N[C@@H](CC(C)C)C(=O)N[C@@H](CCCCNC(=O)OC(C)(C)C)C(=O)N[C@@H](CCC(=O)OC(C)(C)C)C(=O)N[C@H](C(=O)N[C@@H](C)C(=O)N[C@@H](CCCCNC(=O)OC(C)(C)C)C(N)=O)[C@@H](C)CC
- ring closure, conversion by HPLC ([2]; 32-membered ring): 52%

Compound: C#CCCCCC[C@@](C)(NC(=O)[C@H](CCCNC(=N)NS(=O)(=O)c1c(C)c(C)c2c(c1C)CC(C)(C)O2)NC(=O)CNC(=O)[C@H](CCCC)NC(=O)[C@H](CCCNC(=N)NS(=O)(=O)c1c(C)c(C)c2c(c1C)CC(C)(C)O2)NC(=O)[C@H](C)NC(=O)[C@H](Cc1ccc(OC(C)(C)C)cc1)NC(=O)[C@](C)(CCCCCC#C)NC(=O)[C@H](CCCCNC(=O)OC(C)(C)C)NC(=O)[C@H](C)NC(=O)CCCCCNC(=O)OCC1c2ccccc2-c2ccccc21)C(=O)N[C@@H](CC(C)C)C(=O)N[C@@H](CCCCNC(=O)OC(C)(C)C)C(=O)N[C@@H](CCC(=O)OC(C)(C)C)C(=O)N[C@H](C(=O)N[C@@H](C)C(=O)N[C@@H](CCCCNC(=O)OC(C)(C)C)C(N)=O)[C@@H](C)CC
- ring closure, conversion by HPLC ([2]; 36-membered ring): 52%

Compound: C#CCCCCCC[C@@](C)(NC(=O)[C@H](CCCCNC(=O)OC(C)(C)C)NC(=O)[C@H](C)NC(=O)CCCCCNC(=O)OCC1c2ccccc2-c2ccccc21)C(=O)N[C@@H](Cc1ccc(OC(C)(C)C)cc1)C(=O)N[C@@H](C)C(=O)N[C@@H](CCCNC(=N)NS(=O)(=O)c1c(C)c(C)c2c(c1C)CC(C)(C)O2)C(=O)N[C@@H](CCCC)C(=O)NCC(=O)N[C@@H](CCCNC(=N)NS(=O)(=O)c1c(C)c(C)c2c(c1C)CC(C)(C)O2)C(=O)N[C@](C)(CCCCCCC#C)C(=O)N[C@@H](CC(C)C)C(=O)N[C@@H](CCCCNC(=O)OC(C)(C)C)C(=O)N[C@@H](CCC(=O)OC(C)(C)C)C(=O)N[C@H](C(=O)N[C@@H](C)C(=O)N[C@@H](CCCCNC(=O)OC(C)(C)C)C(N)=O)[C@@H](C)CC
- ring closure, conversion by HPLC ([2]; 38-membered ring): 93%

Compound: CCCC[C@@H]1NC(=O)[C@H](CCCNC(=N)N)NC(=O)[C@H](C)NC(=O)[C@H](Cc2ccc(O)cc2)NC(=O)[C@](C)(NC(=O)[C@H](CCCCN)NC(=O)[C@H](C)NC(=O)CCCCCNC(=S)Nc2ccc3c(c2)C(=O)OC32c3ccc(O)cc3Oc3cc(O)ccc32)CCCCCC/C=C/CCC[C@@](C)(C(=O)N[C@@H](CC(C)C)C(=O)N[C@@H](CCCCN)C(=O)N[C@@H](CCC(=O)O)C(=O)N[C@H](C(=O)N[C@@H](C)C(=O)N[C@@H](CCCCN)C(N)=O)[C@@H](C)CC)NC(=O)[C@H](CCCNC(=N)N)NC(=O)CNC1=O ({FITC-Ahx}-AK[R8]YAR[Nle]GR[S5]LKEIAK-NH2; staple (E) 3-10)
- % peptide remaining after 4 h with chymotrypsin: > 92%

- percentage helicity (in words) [1]: high
Compound: FTU-Ahx-AKS8YAR(Nle)GRR8LKEIAK-NH2 (sidechain bridge or staple) [compound 36, diyne-girder stapled T-STAR peptide, C16 bridge, SR]

Compound: C#CCCCCC[C@H](NC(=O)[C@H](CCCNC(=N)NS(=O)(=O)c1c(C)c(C)c2c(c1C)CC(C)(C)O2)NC(=O)CNC(=O)[C@H](CCCC)NC(=O)[C@H](CCCNC(=N)NS(=O)(=O)c1c(C)c(C)c2c(c1C)CC(C)(C)O2)NC(=O)[C@H](C)NC(=O)[C@H](Cc1ccc(OC(C)(C)C)cc1)NC(=O)[C@H](CCCCCC#C)NC(=O)[C@H](CCCCNC(=O)OC(C)(C)C)NC(=O)[C@H](C)NC(=O)CCCCCNC(=O)OCC1c2ccccc2-c2ccccc21)C(=O)N[C@@H](CC(C)C)C(=O)N[C@@H](CCCCNC(=O)OC(C)(C)C)C(=O)N[C@@H](CCC(=O)OC(C)(C)C)C(=O)N[C@H](C(=O)N[C@@H](C)C(=O)N[C@@H](CCCCNC(=O)OC(C)(C)C)C(N)=O)[C@@H](C)CC
- ring closure, conversion by HPLC ([2]; 36-membered ring): 38%

Compound: C#CCCCCCC[C@@](C)(NC(=O)[C@H](CCCCNC(=O)OC(C)(C)C)NC(=O)[C@H](C)NC(=O)CCCCCNC(=O)OCC1c2ccccc2-c2ccccc21)C(=O)N[C@@H](Cc1ccc(OC(C)(C)C)cc1)C(=O)N[C@@H](C)C(=O)N[C@@H](CCCNC(=N)NS(=O)(=O)c1c(C)c(C)c2c(c1C)CC(C)(C)O2)C(=O)N[C@@H](CCCC)C(=O)NCC(=O)N[C@@H](CCCNC(=N)NS(=O)(=O)c1c(C)c(C)c2c(c1C)CC(C)(C)O2)C(=O)N[C@@](C)(CCCCCCC#C)C(=O)N[C@@H](CC(C)C)C(=O)N[C@@H](CCCCNC(=O)OC(C)(C)C)C(=O)N[C@@H](CCC(=O)OC(C)(C)C)C(=O)N[C@H](C(=O)N[C@@H](C)C(=O)N[C@@H](CCCCNC(=O)OC(C)(C)C)C(N)=O)[C@@H](C)CC
- ring closure, conversion by HPLC ([2]; 38-membered ring): 100%
